We go through 1 molecule from patent publication US8466153B2, “Piperidinylamino-pyridazines and their use as fast dissociating dopamine 2 receptor antagonists” (Janssen Pharmaceutica N.V., priority 2006, dated 2013).

Data set [1] has as its system Apomorphine-induced agitation, stereotypy in rats. The experiment in a line: Inhibition of the apomorphine induced agitation test in rats. The class given is in vivo. The settings on record: Rattus norvegicus, 0.5 h, apomorphine 1.0 mg/kg i.v. at 30 min, male Wiga Wistar rats. The procedure:
Male Wiga Wistar rats (180-280 g) were administered test compound (sc: subcutaneously; po: orally; n=3 per dose; dose=0.16, 0.63 and 2.5 mg/kg) or solvent and then challenged with apomorphine (1.0 mg/kg, i.v.) at 30 min. The effects of the test compound on the behavioral changes were evaluated according to all-or-none criteria based on the distribution of results in a large series of control data obtained in solvent-pretreated rats.
Apomorphine (1.0 mg/kg, i.v.)-induced agitation, stereotypy (compulsive sniffing, licking, chewing), was scored every 5 min over the first hour after injection of apomorphine. The score system was: (3) pronounced, (2) moderate, (1) slight, and (0) absent. […] The table below gives the lowest active dose at which 3 out of 3 rats tested met one of the criteria for drug-induced inhibition of agitation.

For the next data set, the target named is T1, human D2L receptor (Homo sapiens, UniProt P14416).
T1 construct: expressed in transfected cells
The experiment in a line: Fast dissociation (indirect [3H]spiperone filter assay). The class given is binding. As to conditions: compound at 4 times its IC50 pre-incubated 1 h at 25° C.; [3H]spiperone 1 nM on filter for 5 minutes. The protocol:
Compounds were first screened for their D2 affinity in a binding assay using [^3H]spiperone and human D2L receptor cell membranes.
Immediately after, the vacuum was released. 0.4 ml of pre-warmed buffer (25° C.) containing 1 nM [^3H]spiperone was added on the filter for 5 minutes. The incubation was stopped by initiating the vacuum and immediate rinsing with 2×5 ml of ice-cold buffer. The filter-bound radioactivity was measured in a liquid scintillation spectrometer. The principle of the assay is based on the assumption that the faster a compound dissociates from the D2 receptor, the faster [^3H]spiperone binds to the D2 receptor.

Data set [2] has as its system panel of more than 50 common G-protein coupled receptors (CEREP). Description: Screen in a panel of more than 50 common G-protein coupled receptors (CEREP). The class given is binding. As to conditions: panel of more than 50 GPCRs. An excerpt:
Selected compounds E15, E16, E17 and E18 were further screened in a panel of more than 50 common G-protein coupled receptors (CEREP) and found to have a clean profile, that is to have low affinity for the tested receptors.

Data set [3] deals with T2, human Dopamine D2L receptor (Homo sapiens, UniProt P14416).
T2 construct: expressed in transfected cells; host or cells: CHO cells
The experiment in a line: In vitro binding affinity for human D2L receptor ([3H]spiperone competition). The settings on record: membranes of human D2L receptor-transfected CHO cells, 30 min, 37° C. An excerpt:
In order to find antipsychotic compounds active against positive symptoms and having an improved safety profile (low EPS incidence and no metabolic disorders), we have screened for compounds selectively interacting with the dopamine D2 receptor and dissociating fast from this receptor. Compounds were first screened for their D2 affinity in a binding assay using [^3H]spiperone and human D2L receptor cell membranes.
Frozen membranes of human Dopamine D2L receptor-transfected CHO cells were thawed, briefly homogenised using an Ultra-Turrax T25 homogeniser and diluted in Tris-HCl assay buffer containing NaCl, CaCl2, MgCl2, KCl (50, 120, 2, 1, and 5 mM respectively, adjusted to pH 7.7 with HCl) to an appropriate protein concentration optimised for specific and non-specific binding. Radioligand [^3H]Spiperone (NEN, specific activity ˜70 Ci/mmol) was diluted in assay buffer at a concentration of 2 nmol/L. Prepared radioligand (50 μl), along with 50 μl of either the 10% DMSO control, Butaclamol (10^−6 mol/l final concentration), or compound of interest, was then incubated (30 min, 37° C.) with 400 μl of the prepared membrane solution. Membrane-bound activity was filtered through a Packard Filtermate harvester onto GF/B Unifilterplates and washed with ice-cold Tris-HCl buffer (50 mM; pH 7.7; 6×0.5 ml). Filters were allowed to dry before adding scintillation fluid and counting in a Topcount scintillation counter. Percentage specific bound and competition binding curves were calculated using S-Plus software (Insightful).

Where two headings read alike, the source gives them in different places.

T1 sequence (P14416 whole entry): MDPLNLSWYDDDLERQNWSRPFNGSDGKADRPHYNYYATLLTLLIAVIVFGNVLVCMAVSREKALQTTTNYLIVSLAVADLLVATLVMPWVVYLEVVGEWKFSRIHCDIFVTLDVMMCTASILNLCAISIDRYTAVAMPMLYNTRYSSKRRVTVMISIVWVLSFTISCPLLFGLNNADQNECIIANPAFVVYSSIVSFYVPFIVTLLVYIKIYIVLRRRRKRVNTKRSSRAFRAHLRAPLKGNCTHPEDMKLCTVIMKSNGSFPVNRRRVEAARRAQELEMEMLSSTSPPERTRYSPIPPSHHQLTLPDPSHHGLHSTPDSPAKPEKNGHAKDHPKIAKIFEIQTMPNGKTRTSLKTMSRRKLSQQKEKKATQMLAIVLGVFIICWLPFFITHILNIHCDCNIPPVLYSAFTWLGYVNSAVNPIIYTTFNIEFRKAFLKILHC
T2 sequence (P14416 whole entry): as above

For the molecule `N#Cc1ccc(NC2CCN(Cc3cc(F)cc(F)c3)CC2)nn1` [Example E15, 6-[1-(3,5-Difluoro-benzyl)-piperidin-4-ylamino]-pyridazine-3-carbonitrile], the melting point – broadly, the temperature of the solid-liquid transition – was 187.9 °C. In addition, the minimal effective dose in data set [1] (po, orally, read-out: po Dose: lowest active dose at which 3 out of 3 rats met a criterion for inhibition of agitation) turned out to be 1.25 mg/kg. In addition, the minimal effective dose in data set [1] (sc, subcutaneously, read-out: sc Dose: lowest active dose at which 3 out of 3 rats met a criterion for inhibition of agitation) is 0.63 mg/kg. Further, the “% Dissociation” value on human D2L receptor stood at 93.50%. In data set [2], the “affinity profile for the tested receptors” value is given as “low affinity”. In addition, the half-maximal inhibitory concentration (IC50) – broadly, the concentration at which inhibition is half-maximal – in data set [3] was 6.61 µM.
